One test concerns the target T1, Human P450scc (Homo sapiens, UniProt P05108).
T1 construct: made in house; host or cells: Escherichia coli
T1 sequence (P05108 40-521): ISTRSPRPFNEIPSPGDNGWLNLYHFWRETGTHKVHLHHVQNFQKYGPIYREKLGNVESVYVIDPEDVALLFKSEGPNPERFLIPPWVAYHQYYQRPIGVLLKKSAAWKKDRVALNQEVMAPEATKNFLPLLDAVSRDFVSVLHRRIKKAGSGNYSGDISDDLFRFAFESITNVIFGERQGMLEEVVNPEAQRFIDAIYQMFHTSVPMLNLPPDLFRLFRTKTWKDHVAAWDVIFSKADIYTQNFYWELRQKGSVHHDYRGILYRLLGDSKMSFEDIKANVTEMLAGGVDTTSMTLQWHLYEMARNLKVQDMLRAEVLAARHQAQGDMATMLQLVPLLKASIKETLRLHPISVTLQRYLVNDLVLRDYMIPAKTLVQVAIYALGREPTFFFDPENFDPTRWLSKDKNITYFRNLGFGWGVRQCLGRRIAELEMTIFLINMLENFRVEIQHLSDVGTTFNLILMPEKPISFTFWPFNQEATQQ
T1 sequence (P10109 61-184 partner): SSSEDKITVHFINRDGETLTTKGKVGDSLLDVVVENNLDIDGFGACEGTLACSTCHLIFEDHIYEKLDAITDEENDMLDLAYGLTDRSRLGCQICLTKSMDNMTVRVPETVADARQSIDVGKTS
The experiment in a line: Side-chain cleavage kinetics by human cytochrome P450scc in phospholipid vesicles. The test is classed as biochemical. Particulars: for kcat: substrate and P450scc in dioleoylphosphatidylcholine vesicles containing cardiolipin, ±SE. The protocol: (§1) Large-scale reactions (50 mL) to cleave the side chain of 7-DHC were performed with purified bovine P450scc and its electron-transfer system in a manner similar to that described for cholesterol (41). The incubation mixture comprised 510 μM phospholipids vesicles (dioleoylphosphatidylcholine plus 15 mol % cardiolipin) with a substrate to phospholipids molar ration of 0.2 50 μM NADPH, 2 mM glucose 6-phosphate, 2 U-mL^−1 glucose 6-phosphate dehydrogenase, 0.3 μM adrenodoxin reductase, 6.5 μM adrenodoxin, 1.0 μM cytochrome P450scc and buffer, pH 7.4 (41). After incubation at 37° C. for 3 h, the mixture was extracted three times with 50 mL methylene chloride and dried under nitrogen at 35° C. Products were purified by preparative TLC on silica gel G with three developments in hexane/ethyl acetate (3:1 v/v) and products eluted from the silica gel with chloroform/methanol (1:1, v/v). Samples were dried under nitrogen and shipped for analysis on dry ice. Small-scale reactions (0.25 mL) to determine the kinetics of 7-DHC and cholesterol metabolism were performed with either bovine or human cytochrome P450scc as described for cholesterol (41). The amount of 7-DHP produced from 7-DHC was measured by RIA [25] using purified 7-DHP as standard.
Table 2 contains the kinetic parameters for side-cahin cleavage of 7-DHC and cholesterol by bovine and human cytochromes P450scc. Kinetic parameters were determined with substrates and P450scc incorporated into dioleoylphosphatidylcholine (PL) vesicles containing cardiolipin. Values for Kcat and Km are ±SE and are expressed as min^−1 and mol sterol-mol PL^−1, respectively. They were obtained from fitting hyperbolic curves to the kinetic data using […].

Test [1] deals with T2, Bovine P450scc (Bos taurus, UniProt P00189).
T2 construct: isolated from adrenals; from tissue; host or cells: bovine adrenals
T2 sequence (P00189 40-520): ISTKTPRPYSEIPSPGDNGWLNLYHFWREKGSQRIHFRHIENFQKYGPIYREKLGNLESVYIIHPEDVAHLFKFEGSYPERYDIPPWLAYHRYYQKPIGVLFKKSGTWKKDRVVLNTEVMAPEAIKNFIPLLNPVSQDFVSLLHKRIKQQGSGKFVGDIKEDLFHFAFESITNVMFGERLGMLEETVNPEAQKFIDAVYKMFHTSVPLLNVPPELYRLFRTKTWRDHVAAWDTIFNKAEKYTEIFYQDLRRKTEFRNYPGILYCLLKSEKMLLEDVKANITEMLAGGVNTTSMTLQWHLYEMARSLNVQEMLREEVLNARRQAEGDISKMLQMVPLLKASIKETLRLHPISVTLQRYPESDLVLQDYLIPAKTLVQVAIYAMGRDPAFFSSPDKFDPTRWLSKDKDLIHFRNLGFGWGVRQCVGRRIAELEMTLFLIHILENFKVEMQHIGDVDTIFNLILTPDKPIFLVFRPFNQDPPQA
T2 sequence (P00257 59-186 partner): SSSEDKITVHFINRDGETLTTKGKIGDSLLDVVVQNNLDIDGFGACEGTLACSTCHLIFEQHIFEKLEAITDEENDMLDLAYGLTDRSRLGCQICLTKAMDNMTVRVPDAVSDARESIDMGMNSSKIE
Particulars: 2-hydroxypropyl-β-cyclodextrin; cited from earlier work.

Test [2] addresses T2, Bovine P450scc. The experiment in a line: Side-chain cleavage kinetics by bovine cytochrome P450scc in phospholipid vesicles. The following applies: for kcat: substrate and P450scc in dioleoylphosphatidylcholine vesicles containing cardiolipin, ±SE. The test is classed as biochemical. The procedure:
as §1
Table 2 contains the kinetic parameters for side-cahin cleavage of 7-DHC and cholesterol by bovine and human cytochromes P450scc. Kinetic parameters were determined with substrates and P450scc incorporated into dioleoylphosphatidylcholine (PL) vesicles containing cardiolipin. Values for Kcat and Km are ±SE and are expressed as min^−1 and mol sterol-mol PL^−1, respectively. They were obtained from fitting hyperbolic curves to the kinetic data using KALEIDAGRAPH.

For a further test, the system named is MLN64 and StAR. The following applies: reconstituted in vitro system; compared with cholesterol; cited from earlier work.
Test [3] deals with mitochondria from skin cells. The test can be described thus: Side-chain cleavage of radiolabelled cholesterol by mitochondria isolated from skin cells. Format: biochemical. The following applies: for conversion relative to that reported for placental mitochondria: cutaneous mitochondria versus literature value for placental mitochondria. The procedure: Mitochondrial fractions of the test tissue, i.e., skin, adrenals or placenta, were prepared by homogenizing the tissue in 5 vols ice-cold 0.25 M sucrose containing protease inhibitor cocktail (Sigma) (38). The homogenate was centrifuged at 600 g for 10 min at 4° C., and the resulting supernatant was centrifuged at 6000 g (placenta) or 9000 g (skin and adrenals) for 20 min at 4° C. to sediment the mitochondrial fraction. The pellet was resuspended in 0.25 M sucrose, and the mitochondrial fraction was again sedimented under the same conditions. The washed mitochondrial fraction was resuspended in 0.25 M sucrose and used for enzymatic reaction. For cultured skin cells, the above procedure was carried out after the cells had been swelled for 30 min in 20 mM HEPES, pH 7.4, before homogenization.
[4-^14C]Cholesterol (58 mCi.mmol^−1; Amersham Bioscience) was purified before its use as a substrate by mitochondria, by TLC on silica gel G plates in hexane/acetone (7:3, v/v). Isolated mitochondria (0.5 mg protein) were then preincubated (15 min at 37° C.) with purified [4-^14C]cholesterol (1 μCi, 34 μM) in 0.5 mL medium comprising 0.25M sucrose, 50 mM HEPES, pH 7.4, 20 mM KCl, 5 mM MgSO4, 0.2 mM EDTA, 0.4 μM adrenodoxin reductase, 6 μM adrenodoxin, 5 μM N-62 StAR protein (gift from W. Miller, University of California, San Francisco, Calif., USA) and 8 μM cyanoketone. The reaction was started by adding NADPH (0.5 mM) and isocitrate (5 mM), and samples were incubated at 37° C. for 150 min. The reaction was stopped by the addition of 1 mL ice-cold methylene chloride, and the incubation mixture extracted twice more with 1 mL methylene chloride. The fractions were combined, dried under nitrogen, and subjected to TLC on silica gel G plates and developed with hexane/acetone (7:3, v/v). Radiolabelled products were visualized using a phosphoimager, the steroids eluted from the plate with chloroform/methanol (1:1, v/v), and the associated radioactivity measured by scintillation counting.

Where [4] appears, read: cutaneous mitochondria, 34 μM substrate, 150 min at 37° C.

The values that follow come from patent US7253293B2, “Enzymatic method to produce 7-dehydropregnenolone, vitamin D3-like compounds and derivatives thereof” (priority 2004, dated 2007).

Structures are written as SMILES.

Broadly, the kcat is the number of substrate molecules converted per active site and unit of time at saturation. Consider `CC(C)CCC[C@@H](C)[C@H]1CC[C@H]2C3=CC=C4C[C@@H](O)CC[C@]4(C)[C@H]3CC[C@]12C` [7-DHC, cholesta-5,7-dien-3β-ol], for which the entries for the “kcat relative to that for cholesterol” value at Human P450scc and on Bovine P450scc [2] (substrate dissolved in membrane of phospholipid vesicles) were 70% and 62%, respectively. In addition, the kcat at Human P450scc worked out at 0.222 ± 0.0067 s⁻¹; on Bovine P450scc [2] it was 0.407 ± 0.0183 s⁻¹. For the same compound, the “Vmax compared with cholesterol” value on Bovine P450scc [1] is “same Vmax for 7-DHC and cholesterol”. Besides, the “efficiency of transport from donor to acceptor vesicles” value with MLN64 and StAR was “efficiency similar to that for cholesterol”.
For `CC(C)CCC[C@@H](C)[C@H]1CC[C@H]2[C@@H]3CC=C4C[C@@H](O)CC[C@]4(C)[C@H]3CC[C@]12C` [Cholesterol, cholesterol], the kcat at Human P450scc is 0.317 ± 0.0067 s⁻¹; on Bovine P450scc [2] it was 0.655 ± 0.0283 s⁻¹.
On to `CC(C)CCC[C@@H](C)[C@H]1CC[C@H]2[C@@H]3CC=C4[14CH2][C@@H](O)CC[C@]4(C)[C@H]3CC[C@]12C` [[4-^14C]cholesterol, [4-^14C]Cholesterol], for which the “conversion relative to that reported for placental mitochondria” value in test [3] is on record as about 1%. In addition, in test [3] (listed as [4-^14C]-cholesterol), the “conversion relative to that reported for placental mitochondria” value is “approximately 1%”. In test [3] (setting [4]), the “rate of conversion into pregnenolone” value is on record as 0.14% and the “rate of conversion into progesterone” value worked out at 0.04%.
